# What was measured:
# [1] = system: SKOV3 ovarian cancer cells; test: Colony formation with MCM2 knockdown or overexpression; assay type: cell-based, human
# Method: (§1) SKOV3 and Hey ovarian cancer cells in logarithmic growth phase were knocked down with MCM2 (Control group, sh-NC group, sh-MCM2 group) and overexpressed with MCM2 (Control group, OE-NC group, OE-MCM2 group). The original culture medium was discarded, washed with PBS buffer, and digested with 0.1% trypsin. A corresponding culture medium was added to prepare a cell suspension. Cells were counted using a hemocytometer and a cell concentration was quantified at 10^3 cells/mL. 1500 μL of each well was inoculated into a 6 well plate, with 3 parallel wells in each group, and incubated in a 37° C. incubator containing 5% CO2 for 12 days. The medium was changed every three days. After the cultivation time was over, the six well plate was taken out, and the original culture medium was poured out. An appropriate amount of 4% paraformaldehyde was added to each well and fixed for 30 minutes. The plate was washed twice with a PBS buffer after pouring out the paraformaldehyde, an appropriate amount of 1% crystal violet solution was added for staining for 10 minutes, the crystal violet solution was poured out, and the plate was washed twice with PBS. Photos were taken, and the number of cell clones formed was counted. After knocking down MCM2 on the SKOV3 and Hey ovarian cancer cells and intervening with CA, BDMC, and combination administration, the results were shown in FIGS. 17A-17B. In FIGS. 17A-17B, A represented the formation of SKOV3 cell clones; and B represented the formation of Hey cell clones. Compared with the sh-NC group, #P<0.05, ##P<0.01; compared with the sh-NC+CA+BDMC group, &P<0.05, &&P<0.01; and ** P<0.01. In FIGS. 18A-18B, A represented the formation of SKOV3 cell clones; and B represented the formation of Hey cell clones. Compared with the OE-NC group, #P<0.05, ##P<0.01; compared with the OE-NC+CA+BDMC group, &P<0.05, &&P<0.01; and *P<0.05; and compared with the OE-MCM2+CA+BDMC group, ΔP<0.05, ΔΔP<0.01; and *P<0.05, ** P<0.01.
# Hey ovarian cancer cells [2] = test: as above; assay type: cell-based, human
# Method: as §1
# [3] = system: E-cadherin, N-cadherin, Vimentin; test: Western Blot of tumor body EMT related proteins in tumor bearing nude mice; assay type: in vivo, BALB/c nude mice; conditions: nude mouse tumor body, compared to the Control group
# From the text: The expression of EMT related proteins was shown in FIG. 30: (1) represented the Control group; (2) represented the DDP group; (3) represented the CA group; (4) represented the BDMC group; and (5) represented the CA+BDMC group.
# [4] = system: MCM2, CDK4, Cyclin D1, P21; test: Western Blot of tumor body cyclin in tumor bearing nude mice; assay type: in vivo, BALB/c nude mice; conditions: nude mouse tumor body, compared to the Control group
# From the text: The expression of nude mice tumor body cyclin and EMT related proteins in tumor bearing nude mice after intervention with DDP, CA, BDMC, and combined administration was shown in FIG. 29. In the figure, 1 represented the Control group; 2 represented the DDP group; 3 represented the CA group; 4 represented the BDMC group; and 5 represented the CA+BDMC group.
# [5] = system: CDK4, Cyclin D1, P21 in SKOV3 cells; test: Expression of cell cycle related proteins in cells; assay type: cell-based, human
# [6] = system: SKOV3 ovarian cancer cells; test: Cell cycle by flow cytometry (PI) with MCM2 knockdown or overexpression; assay type: cell-based, human
# Method: (§2) SKOV3 and Hey ovarian cancer cells in logarithmic growth phase were knocked down with MCM2 (Control group, sh-NC group, sh-MCM2 group) and overexpressed with MCM2 (Control group, OE-NC group, OE-MCM2 group). The original culture medium was discarded, washed with PBS buffer, and digested with 0.1% trypsin. A corresponding culture medium was added to prepare a cell suspension. Cells were counted using a hemocytometer and a cell concentration was quantified at 5×10^4 cells/mL. 1500 μL of each well was inoculated into a 6 well plate, with 3 parallel wells in each group, and incubated in a 37° C. incubator containing 5% CO2 for 24 hours. After the cultivation time was over, the six well plate was taken out and aspirated the original culture medium from the wells for later use. The PBS buffer was added to gently wash the cells three times. 500 μL of 0.1% trypsin was added to each well to wait for the cells to be blown off with a pipette, then the original culture medium from the wells was added to terminate digestion. A pipette was used to gently blow off all the cells on the wall of the six well plate. The cell suspension was aspirated, transferred to a centrifuge tube, and centrifuged at 4° C. and 1000 rpm for 5 minutes. The supernatant was discarded, and 1 mL of pre-cooled PBS buffer was added to gently resuspend the cells, and transferred to a 1.5 mL sterile centrifuge tube. The mixture was centrifuged at 4° C. and 1000 rpm for 5 minutes, the supernatant was discarded, and the bottom of the centrifuge tube was gently tapped to disperse the cells. 1 mL of pre-cooled 70% ethanol was added, blown and mixed well to form a cell suspension, and placed in a refrigerator at 4° C. for 24 hours. After fixation, a water bath kettle was opened in advance, the temperature was set to 37° C., the centrifugation was performed for 5 minutes at 4° C. and 1000 rpm, and the supernatant was discarded. 1 mL of pre-cooled PBS buffer was added and gently resuspended to wash the cells. The mixture was centrifuged at 4° C. and 1000 rpm for 5 minutes, the supernatant was discarded, and the bottom of the centrifuge tube was gently tapped to disperse the cells. 500 μL of PI staining working solution containing RNase was added to each cell sample to be tested, and placed in a 37° C. dark water bath for 30 minutes. A flow cytometer was used to detect red fluorescence at an excitation wavelength of 488 nm, while also measuring light scattering. A modfit 3.2 version was used for cell DNA cycle analysis.
# Hey ovarian cancer cells [7] = test: as above; assay type: cell-based, human
# Method: as §2
# [8] = SKOV3 OE-MCM2 cells (MCM2 overexpression), vs OE-MCM2 group
# [9] = SKOV3 OE-NC cells (empty vector), vs OE-NC group
# [10] = SKOV3 sh-MCM2 cells (MCM2 knockdown), vs sh-MCM2 group
# [11] = SKOV3 sh-NC cells (empty vector), vs sh-NC group
# [12] = Hey OE-MCM2 cells (MCM2 overexpression), vs OE-MCM2 group
# [13] = Hey OE-NC cells (empty vector), vs OE-NC group
# [14] = Hey sh-MCM2 cells (MCM2 knockdown), vs sh-MCM2 group
# [15] = Hey sh-NC cells (empty vector), vs sh-NC group
smiles,measurement,setting,value
"COc1ccc(-c2coc3cc(O)ccc3c2=O)cc1O [CA, calycosin]",number of plaques formed by cloning,[1]; [8],no significant change
same,number of plaques formed by cloning,[1]; [9],significantly reduced
same,number of plaques formed by cloning,[1]; [10],no significant change
same,number of plaques formed by cloning,[1]; [11],significantly reduced
same,number of plaques formed by cloning,Hey ovarian cancer cells [2]; [12],no significant change
same,number of plaques formed by cloning,Hey ovarian cancer cells [2]; [13],significantly reduced
same,number of plaques formed by cloning,Hey ovarian cancer cells [2]; [14],no significant change
same,number of plaques formed by cloning,Hey ovarian cancer cells [2]; [15],significantly reduced
same,expression of E-cadherin protein (Western Blot),[3],significantly increased
same,expression of N-cadherin protein (Western Blot),[3],significantly decreased
same,expression of Vimentin protein (Western Blot),[3],significantly decreased
same,expression of CDK4 protein (Western Blot),[4],significantly decreased
same,expression of Cyclin D1 protein (Western Blot),[4],significantly decreased
same,expression of MCM2 protein (Western Blot),[4],significantly decreased
same,expression of P21 protein (Western Blot),[4],significantly increased
same,expression of CDK4,[5]; [8],no significant change
same,expression of Cyclin D1,[5]; [8],no significant change
same,expression of P21,[5]; [8],no significant change
same,expression of CDK4,[5]; [9],significantly decreased
same,expression of Cyclin D1,[5]; [9],significantly decreased
same,expression of P21,[5]; [9],significantly increased
same,expression of CDK4,[5]; [10],no significant change
same,expression of Cyclin D1,[5]; [10],no significant change
same,expression of P21,[5]; [10],no significant change
same,expression of CDK4,[5]; [11],significantly decreased
same,expression of Cyclin D1,[5]; [11],significantly decreased
same,expression of P21,[5]; [11],significantly increased
same,percentage of G0/G1 phase cells,[6]; [8],no significant change
same,percentage of G0/G1 phase cells,[6]; [9],significantly increased
same,percentage of G0/G1 phase cells,[6]; [10],no significant change
same,percentage of G0/G1 phase cells,[6]; [11],significantly increased
same,percentage of G0/G1 phase cells,Hey ovarian cancer cells [7]; [12],no significant change
same,percentage of G0/G1 phase cells,Hey ovarian cancer cells [7]; [13],significantly increased
same,percentage of G0/G1 phase cells,Hey ovarian cancer cells [7]; [14],no significant change
same,percentage of G0/G1 phase cells,Hey ovarian cancer cells [7]; [15],significantly increased
